Laboratory results: patent US11420962B2, “Indene derivatives useful in treating pain and inflammation” (TARO PHARMACEUTICALS INC., priority 2018, dated 2022)
Read-outs that look alike come from different tables or passages of the source.

What was measured:
[1] = Metabolism by human liver microsomes; format: in vitro ADME; details: in the presence of NADPH; for Scoring (% of drug remaining after 60 minutes, PDR60): Table 8, 10 µM, 1 mg/mL protein
Method: Representative compounds of the invention (i.e., test compounds) and the positive control, 7-ethoxycoumarin, were prepared as stock solutions at 10 mM in DMSO and eventually diluted to 10 μM in the test plate, with an appropriate amount of acetonitrle and tris HCl buffer. Final DMSO and acetonitrile concentrations were […] and 0.5% respectively. NADPH was prepared in tris HCl buffer to a stock of 10 mM. A frozen aliquot of live microsomes was retrieved from the freezer (−80° C.) and thawed by placing the tube on wet ice. After thawing, the tubes were gently mixed and the required amount, transferred to tris HCl buffer. Test compounds or positive control were pre-incubated, separately, for 10 minutes, with liver microsomes (1 mg/mL protein), at 37° C., in 100 mM Tris HCl at pH 7.5. After preincubation the reaction was started by adding 1 mM NADPH (pre-equilibrated to […]) and the reaction allowed to proceed for 60 minutes. At 60 minutes, a 50 μL aliquot was removed and quenched with 200 uL of acetonitrile containing a mixture of internal standards (Tolbutamide (500 ng/mL) and Telmistartan (500 ng/mL)) and vortexed then centrifuged at 4000 rmp for 10 minutes (Eppendorf 5810R). The supernatant was transferred to a 96 well plate for LC-MS/MS analysis.
An LC-MS/MS method was devised for the test compounds and the control, using a AB Sciex API 4000 system coupled to a NEXAR™ UHPLC (Shimadzu) system. Analytes were separated on a Phenomenex Kinetex C18 column (50×2.1 mm, 5 μm) using a gradient that was appropriate for each compound, at a flow rate of 1 ml/minute, utilizing a mobile phase of 0.1% formic acid in MILLI-Q™ water (A) and 0.1% formic acid in acetonitrile (B). The MS instrument was operated in positive mode (ESI+)/negative (ESI−). The multiple reaction monitoring (MRM) transition for test and control compounds was used for the LC-MS/MS analysis. MRM transitions for control compound 7-ethoxycoumarinm were Quadropole 1: 191.0, Quadropole 3: 163.0, dwell time: 75 msec, using curtain gas settings of 5 V, ion-spray voltage of 5500 V, temperature of 50° C. and gas settings for nebulizer and auxiliary set to 30 and 40 psi, respectively. The interface heater was kept on. Entrance potential and collision cell exit potential were varied to tune for a specific compound.
Using a suitable LC-MS/MS method, the percentage of drug remaining at 60 minutes ([…]) was assessed by comparing the average analyte to internal standard area ratio at 60 minutes to the average analyte to internal standard area ratio at 0 time control, as a percentage, from a 5 to 10 μL sample injection.
According to the above assay, the representative compounds listed in Table 8 below were active in the Human liver microsome assay at […] and the % of drug remaining after 60 minutes (PDR60), in the presence of NADPH, was assessed by LC-MS/MS. Average PDR60 for the standard compound, 7-ethoxycoumarin was <=65% in the presence of NADPH. Scoring for the test compounds, in the presence of NADPH, was as follows: “A” represents a PDR^60 of 81 to 100%, “B” represents a PDR^60 of 61 to 80%, “C” represents a PDR^60 of 31 to 60% and “D” represents a PDR^60 of 0 to 30%.

[2] = system: Rat DRG; test: Rat dorsal root ganglion excitability response (EFS, Ca2+ transients); format: cell-based
Method: Dorsal root ganglions (DRGs) were dissected from adult rats. The tissue was processed, and cells were seeded into call culture plates (48 center wells of one quadrant in 384-well plates) and cultured for 2 days prior to Electrical field stimulation (EFS). To visualize the neuronal excitability response, intracellular Ca^+2 transients were monitored using the Ca^+2 indicator, Ca5. Ca5 was added to the cultures 1 h prior to EFS. Representative test compounds of the invention (i.e., test compounds) and reference compound, tetracaine, were added in concentration-response format encompassing six concentrations, performed in duplicate. The highest concentration tested was typically 30 μM with 1 in 3 dilutions generating the subsequent concentrations.
Effects on DRG excitability by the test compounds and standard were evaluated using four EFS protocols as disclosed in Table 2.
Experimental results were performed using two separate sets of plates using separate test compound and standard dilutions, to provide n=2. In the first set of experiments, compounds were added 24 h prior to EFS to increase the possibility to also detect more long-term compound effects. In the second set of experiments the compounds were added directly prior to EFS. Excitability response to EFS was analyzed as the average fluorescence ratio (peak/baseline) change per well. All plates were evaluated using high content imaging equipment post-EFS, imaging the Ca5 background staining to detect any possible compound-related toxic effects.
Average response by the standard compound, tetracaine, was 4.05 μM.

[3] = Rattus norvegicus, Table 3, electrical field stimulation, Ca5 indicator, read-out: Scoring (EC50, Rat DRG excitability)

| SMILES | Scoring (% of drug remaining after 60 minutes, PDR60) [1] | EC50 [2, 3] [µM] | other results |
| --- | --- | --- | --- |
| C[C@H]1CC[C@H]2[C@H](CO)[C@@H]([C@@]3(C)Cc4cn[nH]c4C[C@@H]3CO)CC[C@]12C [Ia-5, ((5R,6S)-5-((1S,3aS,4S,5S,7aR)-4-(hydroxymethyl)-1,7a-dimethyloctahydro-1H-inden-5-yl)-5-methyl-4,5,6,7-tetrahydro-1H-indazol-6-yl)methanol] | D (a PDR^60 of 0 to 30%) |  |  |
| C[C@H]1CC[C@H]2[C@H](CN)[C@@H]([C@@]3(C)Cc4cn(-c5ccccc5)nc4C[C@@H]3CO)CC[C@]12C [Ia-36, ((5R,6S)-5-((1S,3aS,4S,5S,7aR)-4-(aminomethyl)-1,7a-dimethyloctahydro-1H-inden-5-yl)-5-methyl-2-phenyl-4,5,6,7-tetrahydro-2H-indazol-6-yl)methanol] | A (a PDR^60 of 81 to 100%) | 2 to 6 |  |
| CC=C1CC[C@H]2[C@H](CN)[C@@H]([C@@]3(C)Cc4cn[nH]c4C[C@@H]3CO)CC[C@]12C [Ia-65, ((5R,6S)-5-((3aS,4R,5S,7aS)-4-(aminomethyl)-1-ethylidene-7a-methyloctahydro-1H-inden-5-yl)-5-methyl-4,5,6,7-tetrahydro-1H-indazol-6-yl)methanol] | A (a PDR^60 of 81 to 100%) | 6 to 15 |  |
| CC(C)CCC[C@@H](C)[C@H]1CC[C@H]2[C@H](CN)[C@@H]([C@@]3(C)Cc4cn[nH]c4C[C@@H]3CN)CC[C@]12C [Ia-57, ((1R,3aS,4S,5S,7aR)-5-((5R,6S)-6-(aminomethyl)-5-methyl-4,5,6,7-tetrahydro-1H-indazol-5-yl)-7a-methyl-1-((R)-6-methylheptan-2-yl)octahydro-1H-inden-4-yl)methanamine] | A (a PDR^60 of 81 to 100%) |  |  |
| C=C1CC[C@H]2[C@H](CN3CCN(C)CC3)[C@@H]([C@@]3(C)Cc4cn[nH]c4C[C@@H]3CO)CC[C@]12C [Ia-48, ((5R,6S)-5-methyl-5-((3aS,4R,5S,7aS)-7a-methyl-1-methylene-4-((4-methylpiperazin-1-yl)methyl)octahydro-1H-inden-5-yl)-4,5,6,7-tetrahydro-1H-indazol-6-yl)methanol] | D (a PDR^60 of 0 to 30%) | 6 to 15 |  |
| C=C1CC[C@H]2[C@H](CN)[C@@H]([C@@]3(C)Cc4cnn(C5CCCCC5)c4C[C@@H]3CO)CC[C@]12C [Ia-16, ((5R,6S)-5-((3aS,4R,5S,7aS)-4-(aminomethyl)-7a-methyl-1-methyleneoctahydro-1H-inden-5-yl)-1-cyclohexyl-5-methyl-4,5,6,7-tetrahydro-1H-indazol-6-yl)methanol] | B (a PDR^60 of 61 to 80%) | 2 to 6 |  |
| C=C1CC[C@H]2[C@H](CN)[C@@H]([C@@]3(C)Cc4cn[nH]c4C[C@@H]3CN)CC[C@]12C [Ia-58, ((3aS,4R,5S,7aS)-5-((5R,6S)-6-(aminomethyl)-5-methyl-4,5,6,7-tetrahydro-1H-indazol-5-yl)-7a-methyl-1-methyleneoctahydro-1H-inden-4-yl)methanamine] | A (a PDR^60 of 81 to 100%) |  |  |
| C=C1CC[C@H]2[C@H](CN)[C@@H]([C@@]3(C)Cc4cc[nH]c4C[C@@H]3CO)CC[C@]12C [Id-1, ((5R,6S)-5-((3aS,4R,5S,7aS)-4-(aminomethyl)-7a-methyl-1-methyleneoctahydro-1H-inden-5-yl)-5-methyl-4,5,6,7-tetrahydro-1H-indol-6-yl)methanol] | C (a PDR^60 of 31 to 60%) | 6 to 15 |  |
| CCCCNc1ccc(C(=O)OCCN(C)C)cc1 [tetracaine, reference compound] |  |  | EC50 ([2]; Rat DRG excitability, read-out: Average response by the standard compound): 4.05 µM |
| C[C@H]1CC[C@H]2[C@H](CN)[C@@H]([C@@]3(C)Cc4cnn(-c5ccccc5)c4C[C@@H]3CO)CC[C@]12C [Ia-35, ((5R,6S)-5-((1S,3aS,4S,5S,7aR)-4-(aminomethyl)-1,7a-dimethyloctahydro-1H-inden-5-yl)-5-methyl-1-phenyl-4,5,6,7-tetrahydro-1H-indazol-6-yl)methanol] |  | < 2 |  |
| CCOc1ccc2ccc(=O)oc2c1 [7-ethoxycoumarin, reference compound] |  |  | Average PDR60 [1]: <= 65% |
| C[C@H]1CC[C@H]2[C@H](CN)[C@@H]([C@@]3(C)Cc4cnn(C(C)(C)C)c4C[C@@H]3CO)CC[C@]12C [Ia-40, ((5R,6S)-5-((1S,3aS,4S,5S,7aR)-4-(aminomethyl)-1,7a-dimethyloctahydro-1H-inden-5-yl)-1-(tert-butyl)-5-methyl-4,5,6,7-tetrahydro-1H-indazol-6-yl)methanol] |  | 2 to 6 |  |
| C[C@H]1CC[C@H]2[C@H](CN)[C@@H]([C@@]3(C)Cc4cn(-c5ccccn5)nc4C[C@@H]3CO)CC[C@]12C [Ia-43, ((5R,6S)-5-((1S,3aS,4S,5S,7aR)-4-(aminomethyl)-1,7a-dimethyloctahydro-1H-inden-5-yl)-5-methyl-2-(pyridin-2-yl)-4,5,6,7-tetrahydro-2H-indazol-6-yl)methanol] |  | < 2 |  |
| C[C@]1([C@H]2CC[C@]3(C)C=CC[C@H]3[C@@H]2CN)Cc2cn[nH]c2C[C@@H]1CO [Ia-28, ((5R,6S)-5-((3aR,6S,7R,7aS)-7-(aminomethyl)-3a-methyl-3a,4,5,6,7,7a-hexahydro-1H-inden-6-yl)-5-methyl-4,5,6,7-tetrahydro-1H-indazol-6-yl)methanol] | A (a PDR^60 of 81 to 100%) |  |  |
| C[C@H]1CC[C@H]2[C@H](CN)[C@@H]([C@@]3(C)Cc4cnn(-c5ccccn5)c4C[C@@H]3CO)CC[C@]12C [Ia-42, ((5R,6S)-5-((1S,3aS,4S,5S,7aR)-4-(aminomethyl)-1,7a-dimethyloctahydro-1H-inden-5-yl)-5-methyl-1-(pyridin-2-yl)-4,5,6,7-tetrahydro-1H-indazol-6-yl)methanol] |  | < 2 |  |
| C[C@H]1CC[C@H]2[C@H](CN)[C@@H]([C@@]3(C)Cc4cnn(CC(C)(C)C)c4C[C@@H]3CO)CC[C@]12C [Ia-38, ((5R,6S)-5-((1S,3aS,4S,5S,7aR)-4-(aminomethyl)-1,7a-dimethyloctahydro-1H-inden-5-yl)-5-methyl-1-neopentyl-4,5,6,7-tetrahydro-1H-indazol-6-yl)methanol] |  | < 2 |  |
| C=C1CC[C@H]2[C@H](CN)[C@@H]([C@@]3(C)Cc4cn(CC(C)(C)C)nc4C[C@@H]3CO)CC[C@]12C [Ia-23, ((5R,6S)-5-((3aS,4R,5S,7aS)-4-(aminomethyl)-7a-methyl-1-methyleneoctahydro-1H-inden-5-yl)-5-methyl-2-neopentyl-4,5,6,7-tetrahydro-2H-indazol-6-yl)methanol] |  | 2 to 6 |  |
| C[C@H]1CC[C@H]2[C@H](CN)[C@@H]([C@@]3(C)Cc4cnn(C5CCCCC5)c4C[C@@H]3CO)CC[C@]12C [Ia-37, ((5R,6S)-5-((1S,3aS,4S,5S,7aR)-4-(aminomethyl)-1,7a-dimethyloctahydro-1H-inden-5-yl)-1-cyclohexyl-5-methyl-4,5,6,7-tetrahydro-1H-indazol-6-yl)methanol] |  | < 2 |  |
